# Test results as given in patent publication US7173019B2, “Linked cyclitols and their polysulfated derivatives” (The Australian National University, priority 2001, dated 2007).
# Read-outs that look alike come from different tables or passages of the source.
# Columns and labels:
# [1] = biological target: T1, human leukocyte Cathepsin G (Homo sapiens, UniProt P08311); assay: Cathepsin G inhibition, fluorogenic substrate, 96 well assay; format: biochemical; details: human leukocyte cathepsin G 100 ng, 37° C., 60 min, pH 6.6; for IC50: read-out: Amount for 50% inhibition (converted)
# T1 construct: human leukocyte Cathepsin G (100 ng protein); from tissue; host or cells: human leukocytes
# T1 sequence (P08311 21-244): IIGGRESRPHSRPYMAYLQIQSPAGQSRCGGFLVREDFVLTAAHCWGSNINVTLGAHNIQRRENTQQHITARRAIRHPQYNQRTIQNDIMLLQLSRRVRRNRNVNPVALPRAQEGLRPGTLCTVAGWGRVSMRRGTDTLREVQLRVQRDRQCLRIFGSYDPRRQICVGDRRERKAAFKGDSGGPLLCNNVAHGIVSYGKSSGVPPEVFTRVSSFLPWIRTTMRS
# Description: Cathepsin G activity was determined using a 96 well assay format in PVC microtitre U-bottom plates with activity determination by a fluorescence plate reader. Briefly, within a total incubation volume of 40 μl, human leukocyte Cathepsin G (100 ng protein) was added to a mixture of inhibitor and the fluorogenic substrate MeOSuc-ala-ala-pro-phe-AMAC in 50 mM-NaOAc buffer, pH 6.6 containing 50 mM NaCl and 0.1% (v/v) Brij 35. The mixture was incubated at 37° C. for 60 min, the reaction stopped by the addition of 40 μl of 250 mM acetic acid and the fluorescence determined with excitation at 360 nm and emitted light measured at 460 nm.
# In this table, the linked cyclitol compound identifications are the same as those given in Section A above where the structures of the compounds are also given. With regard to the purity rating, a greater number of asterisks signifies a greater degree of purity with five asterisks signifying an essentially pure compound. The cathepsin G inhibition data are the concentrations of compounds required to inhibit the enzyme by 50%.
# [2] = biological target: T2, human platelet heparanase (Homo sapiens, UniProt Q9Y251); assay: Heparanase inhibition, 3H-radiolabelled HS cleavage assay; format: biochemical; details: for inhibition: read-out: Relative inhibition (%); for EC50: heparanase inhibition; for inhibition at 10 µg/mL: read-out: Inhibition (%) at 10 μg/ml
# T2 construct: 10 ng of purified human platelet heparanase; from tissue; host or cells: human platelets
# T2 sequence (Q9Y251 158-543 limits assumed): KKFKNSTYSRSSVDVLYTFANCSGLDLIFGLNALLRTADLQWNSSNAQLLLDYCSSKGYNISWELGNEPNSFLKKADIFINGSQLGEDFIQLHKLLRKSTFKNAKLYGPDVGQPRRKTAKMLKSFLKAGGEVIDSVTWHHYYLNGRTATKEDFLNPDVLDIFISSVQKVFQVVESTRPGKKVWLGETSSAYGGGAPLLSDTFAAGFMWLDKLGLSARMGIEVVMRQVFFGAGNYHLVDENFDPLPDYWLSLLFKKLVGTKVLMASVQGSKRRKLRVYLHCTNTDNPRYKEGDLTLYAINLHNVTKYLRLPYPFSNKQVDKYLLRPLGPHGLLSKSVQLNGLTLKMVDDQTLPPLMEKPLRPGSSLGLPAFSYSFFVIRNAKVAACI
# T2 sequence (Q9Y251 36-109 limits assumed): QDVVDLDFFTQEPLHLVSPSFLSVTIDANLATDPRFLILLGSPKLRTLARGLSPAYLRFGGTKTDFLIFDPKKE
# Description: Briefly, to an incubation mixture of […] containing ^3H-radiolabelled porcine mucosal HS […], 50 mM-sodium acetate buffer, pH 5.0, […] bovine serum albumin and the inhibitor to be tested, was added 10 ng of purified human platelet heparanase and the mixture incubated for 30 min. The reaction was terminated by freezing the assay tubes. The substrate was separated from the cleavage products on minicolumns of sepharose-bound histidine-rich glycoprotein (Freeman, C., and Parish, C. R. [1997], supra).
# Inhibitory activity is based on a comparison with heparin with 100% inhibition at 30 μg/ml. The compounds were also tested at the same purity as in Example 15.
# bFGF = bFGF (Homo sapiens, UniProt P09038); assay: Biacore biosensor: inhibition of bFGF binding to immobilised heparin and heparan sulfate
# Chain of bFGF (P09038 134-288 limits assumed, species assumed): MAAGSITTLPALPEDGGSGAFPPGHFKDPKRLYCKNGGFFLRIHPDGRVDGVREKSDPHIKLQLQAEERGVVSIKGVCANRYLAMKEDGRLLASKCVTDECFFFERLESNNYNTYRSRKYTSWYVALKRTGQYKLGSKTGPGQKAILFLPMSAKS
# Description: (§1) Assays were performed using a Biacore™ 2000 optical biosensor obtained from Biacore AB, Uppsala, Sweden. The biosensor was operated in accordance with the manufacturer's instructions. Briefly, neutravidin was covalently coupled to the surface of CM5 chips of the biosensor and then either biotinylated heparin (1 μg/ml) or biotinylated heparan sulfate ([…]) bound to the immobilised neutravidin. Mixtures of a test compound and a growth factor or other effector compound were preincubated for 2 to 5 minutes and the mixtures then added to individual biosensor cuvettes. Binding of growth factor or effector compound to the heparin or heparan sulfate was then monitored for approximately 5 minutes with the biosensor.
# (§2) The tabulated values are the IC50 in μM or % inhibition of binding of the growth factor to the immobilised heparan sulfate (HS) or heparin.
# aFGF = aFGF (Homo sapiens, UniProt P05230); assay: Biacore biosensor: inhibition of aFGF binding to immobilised heparin and heparan sulfate; details: inhibitor 0.034 μM, aFGF 0.025 μM
# Chain of aFGF (P05230 whole entry, species assumed): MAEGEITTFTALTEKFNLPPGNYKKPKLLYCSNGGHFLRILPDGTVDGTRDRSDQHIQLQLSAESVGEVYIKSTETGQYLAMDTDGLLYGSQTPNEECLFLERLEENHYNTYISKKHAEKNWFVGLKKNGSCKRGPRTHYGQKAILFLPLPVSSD
# Description: as §1, §2
# VEGF = biological target: T3, VEGF (Homo sapiens, UniProt P15692); assay: Biacore biosensor: inhibition of VEGF binding to immobilised heparin and heparan sulfate; details: inhibitor 0.034 μM, VEGF 0.025 μM
# T3 sequence (P15692 27-191 isoform P15692-4): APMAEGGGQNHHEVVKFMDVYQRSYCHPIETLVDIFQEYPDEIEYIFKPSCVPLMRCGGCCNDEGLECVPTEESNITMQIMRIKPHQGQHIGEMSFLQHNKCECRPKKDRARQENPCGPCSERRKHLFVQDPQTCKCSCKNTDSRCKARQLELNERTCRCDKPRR
# Description: as §1, §2
# IL-8 = biological target: T4, IL-8 (Homo sapiens, UniProt P10145); assay: Biacore biosensor: inhibition of IL-8 binding to immobilised heparin and heparan sulfate; details: inhibitor 1.0 μM, IL-8 0.068 μM
# T4 sequence (P10145 21-99): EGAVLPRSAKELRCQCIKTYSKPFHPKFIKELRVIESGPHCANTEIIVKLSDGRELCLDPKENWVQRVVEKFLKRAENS
# Description: as §1
# [3] = based on a comparison with heparin with 100% inhibition at 30 μg/ml
# [4] = immobilised heparan sulfate, inhibitor 0.034 μM, bFGF 0.034 μM, read-out: Inhibition of binding of bFGF (HS)
# [5] = immobilised heparin, inhibitor 0.034 μM, bFGF 0.034 μM, read-out: Inhibition of binding of bFGF (Hep)
# [6] = immobilised heparan sulfate, read-out: Inhibition of binding of aFGF (HS)
# [7] = immobilised heparin, read-out: Inhibition of binding of aFGF (Hep)
# [8] = immobilised heparan sulfate, read-out: Inhibition of binding of VEGF (HS)
# [9] = immobilised heparin, read-out: Inhibition of binding of VEGF (Hep)
# [10] = immobilised heparan sulfate, read-out: Inhibition of binding of IL-8 (HS)
# [11] = immobilised heparin, read-out: Inhibition of binding of IL-8 (Hep)
# [12] = immobilised heparan sulfate, read-out: IC50, inhibition of bFGF binding (HS)
# [13] = immobilised heparin, read-out: IC50, inhibition of bFGF binding (Hep)
SMILES,IC50 [1],"inhibition [2, 3]",EC50 ([2]; read-out: EC50 (converted)),inhibition at 0.034 µM (bFGF; [4]),inhibition at 0.034 µM (bFGF; [5]),inhibition at 0.034 µM (aFGF; [6]),inhibition at 0.034 µM (aFGF; [7]),inhibition at 0.034 µM (VEGF; [8]),inhibition at 0.034 µM (VEGF; [9]),inhibition at 1 µM (IL-8; [10]),inhibition at 1 µM (IL-8; [11]),IC50 (bFGF; [12]),IC50 (bFGF; [13]),inhibition at 10 µg/mL [2],also measured
O=S(=O)(O)OC(CN([C@H]1C=C[C@@H](OS(=O)(=O)O)[C@@H](OS(=O)(=O)O)[C@@H]1OS(=O)(=O)O)[C@H]1C=C[C@@H](OS(=O)(=O)O)[C@@H](OS(=O)(=O)O)[C@@H]1OS(=O)(=O)O)CN([C@H]1C=C[C@@H](OS(=O)(=O)O)[C@@H](OS(=O)(=O)O)[C@@H]1OS(=O)(=O)O)[C@H]1C=C[C@@H](OS(=O)(=O)O)[C@@H](OS(=O)(=O)O)[C@@H]1OS(=O)(=O)O [Compound 4l],0.292 µM,48%,17 µM,43%,34%,47%,54%,0%,0%,46%,52%,,,,
O=S(=O)(O)OC1C(OS(=O)(=O)O)C(OS(=O)(=O)O)C(N(CCCCCCCCCCN(C2C(OS(=O)(=O)O)C(OS(=O)(=O)O)C(OS(=O)(=O)O)C(OS(=O)(=O)O)C2OS(=O)(=O)O)C2C(OS(=O)(=O)O)C(OS(=O)(=O)O)C(OS(=O)(=O)O)C(OS(=O)(=O)O)C2OS(=O)(=O)O)C2C(OS(=O)(=O)O)C(OS(=O)(=O)O)C(OS(=O)(=O)O)C(OS(=O)(=O)O)C2OS(=O)(=O)O)C(OS(=O)(=O)O)C1OS(=O)(=O)O (centres unmarked) [Compound 5c],0.198 µM,,20.6 µM,,,,,,,,,> 0.25 µM,> 0.25 µM,,"heparanase inhibition, in words [2]: poor heparanase inhibitor"
O=S(=O)(O)O[C@H]1[C@H](OS(=O)(=O)O)[C@@H](N(CCCCCCCCN([C@H]2C=C[C@@H](OS(=O)(=O)O)[C@@H](OS(=O)(=O)O)[C@@H]2OS(=O)(=O)O)[C@H]2C=C[C@@H](OS(=O)(=O)O)[C@@H](OS(=O)(=O)O)[C@@H]2OS(=O)(=O)O)[C@H]2C=C[C@@H](OS(=O)(=O)O)[C@@H](OS(=O)(=O)O)[C@@H]2OS(=O)(=O)O)C=C[C@H]1OS(=O)(=O)O [Compound 4i],0.136 µM,53%,16.1 µM,51%,45%,28%,30%,71%,70%,89%,95%,,,39%,
O=S(=O)(O)O[C@H]1[C@H](OS(=O)(=O)O)[C@@H](N(CCCCCN([C@H]2C=C[C@@H](OS(=O)(=O)O)[C@@H](OS(=O)(=O)O)[C@@H]2OS(=O)(=O)O)[C@H]2C=C[C@@H](OS(=O)(=O)O)[C@@H](OS(=O)(=O)O)[C@@H]2OS(=O)(=O)O)[C@H]2C=C[C@@H](OS(=O)(=O)O)[C@@H](OS(=O)(=O)O)[C@@H]2OS(=O)(=O)O)C=C[C@H]1OS(=O)(=O)O [Compound 4k],0.133 µM,50%,,45%,36%,39%,43%,30%,41%,54%,67%,,,39%,
O=S(=O)(O)O[C@H]1[C@H](OS(=O)(=O)O)[C@@H](N(CCCN([C@H]2C=C[C@@H](OS(=O)(=O)O)[C@@H](OS(=O)(=O)O)[C@@H]2OS(=O)(=O)O)[C@H]2C=C[C@@H](OS(=O)(=O)O)[C@@H](OS(=O)(=O)O)[C@@H]2OS(=O)(=O)O)[C@H]2C=C[C@@H](OS(=O)(=O)O)[C@@H](OS(=O)(=O)O)[C@@H]2OS(=O)(=O)O)C=C[C@H]1OS(=O)(=O)O [Compound 4a],0.162 µM,60%,16.2 µM,29%,20%,73%,74%,4%,5%,38%,48%,0.11 µM,> 0.25 µM,37%,
O=S(=O)(O)OC1C(OS(=O)(=O)O)C(OS(=O)(=O)O)C(N(CCCCCCN(C2C(OS(=O)(=O)O)C(OS(=O)(=O)O)C(OS(=O)(=O)O)C(OS(=O)(=O)O)C2OS(=O)(=O)O)C2C(OS(=O)(=O)O)C(OS(=O)(=O)O)C(OS(=O)(=O)O)C(OS(=O)(=O)O)C2OS(=O)(=O)O)C2C(OS(=O)(=O)O)C(OS(=O)(=O)O)C(OS(=O)(=O)O)C(OS(=O)(=O)O)C2OS(=O)(=O)O)C(OS(=O)(=O)O)C1OS(=O)(=O)O (centres unmarked) [Compound 5b],0.304 µM,,5.92 µM,,,,,,,,,0.096 µM,> 0.25 µM,,
"O=S(=O)(O)OC[C@H]1O[C@@](COS(=O)(=O)O)(O[C@H]2O[C@H](COS(=O)(=O)O)[C@@H](OS(=O)(=O)O)[C@H](OS(=O)(=O)O)[C@H]2OS(=O)(=O)O)[C@@H](OS(=O)(=O)O)[C@@H]1OS(=O)(=O)O [Sucrose octasulfate, reference compound]",,,,,,,,,,,,0.925 µM,> 1 µM,,"Amount for 50% inhibition [1]: 4.30 µg/mL; Relative inhibition (%) [2, 3]: 0%; EC50 [2]: >30 mg/L; Inhibition of binding of bFGF (HS) (bFGF; immobilised heparan sulfate, inhibitor 0.034 μM, bFGF 0.034 μM): 2.5% (HS); Inhibition of binding of bFGF (Hep) (bFGF; immobilised heparin, inhibitor 0.034 μM, bFGF 0.034 μM): 0% (Hep); Inhibition of binding of aFGF (HS) (aFGF; immobilised heparan sulfate): 0% (HS); Inhibition of binding of aFGF (Hep) (aFGF; immobilised heparin): 0% (Hep); Inhibition of binding of VEGF (HS) (VEGF; immobilised heparan sulfate): 0% (HS); Inhibition of binding of VEGF (Hep) (VEGF; immobilised heparin): 0% (Hep)"
